Assay [1] concerns Rhizoctonia solani (RHIZSO). Kind of assay: microbe, parasite or virus in culture. The format is cell-based. The following applies: Rhizoctonia solani, read-out: RHIZSO in vitro Growth Inhibition.
Assay [2] relates to Mycosphaerella graminicola (Septoria tritici—SEPTTR). Kind of assay: In vitro fungal growth inhibition, Mycosphaerella graminicola (SEPTTR). The format is cell-based. As to conditions: Zymoseptoria tritici, read-out: SEPTTR in vitro Growth Inhibition.
Assay [3] has as its system Ustilago maydis (USTIMA). Briefly: microbe, parasite or virus in culture. The following applies: Mycosarcoma maydis, read-out: USTIMA in vitro Growth Inhibition. The class given is cell-based.
Assay [4] has as its system Leptosphaeria nodorum—LEPTNO. Briefly: Glume Blotch of Wheat, in vivo whole plant, 24 Hour Protectant. As to conditions: for pest or weed control at 100 ppm: Leptosphaeria, read-out: LEPTNO in vivo 1 Day Protectant.
The test system of assay [5] is Puccinia recondita—PUCCRT. Briefly: Brown Rust of Wheat, in vivo whole plant, 24 Hour Protectant. As to conditions: for pest or weed control at 100 ppm: Puccinia, read-out: PUCCRT in vivo 1 Day Protectant.
The subject of assay [6] is Magnaporthe grisea (Pyricularia oryzae—PYRIOR). Briefly: microbe, parasite or virus in culture. The format is cell-based. The following applies: Pyricularia oryzae, read-out: PYRIOR in vitro Growth Inhibition.
Assay [7] deals with Phytophthora infestans—PHYTIN. Kind of assay: whole plant or invertebrate. The class given is in vivo. The following applies: Phytophthora, in Solanum lycopersicum, 24 h, read-out: PHYTIN in vivo 1 Day Protectant.
Assay [8] relates to Phytophthora infestans (PHYTIN). Kind of assay: microbe, parasite or virus in culture. The format is cell-based. The following applies: Phytophthora infestans, read-out: PHYTIN in vitro Growth Inhibition.
Assay [9] has as its system Stagonospora nodorum (Leptosphaeria nodorum—LEPTNO). Briefly: In vitro fungal growth inhibition, Stagonospora nodorum (LEPTNO). The following applies: Leptosphaeria, read-out: LEPTNO in vitro Growth Inhibition. The format is cell-based.
In assay [10] the test system is Erysiphe graminis—ERYSGT. Briefly: Powdery Mildew of Wheat, in vivo whole plant, 24 Hour Protectant. The following applies: Erysiphe, read-out: ERYSGT in vivo 1 Day Protectant.
Assay [11] concerns Septoria tritici—SEPTTR. Briefly: Leaf Blotch of Wheat, in vivo whole plant, 24 Hour Protectant. As to conditions: for pest or weed control at 100 ppm: Zymoseptoria tritici, 24 h, read-out: SEPTTR in vivo 1 Day Protectant.
The mark [12] stands for this setting: 100 ppm spray, 24 hour protectant, wheat, control of fungal infection vs untreated plants.
Where [13] appears, read: 100 ppm spray, wheat, 24 hour protectant, control of fungal infection vs untreated plants.
Setting [14] is: wheat plants sprayed at 100 ppm, inoculated after 24 hours, control of fungal infection vs untreated plants.
The mark [15] stands for this setting: 100 ppm spray, wheat, 24 hour protectant, % control of fungal infection vs untreated plants.

Read-outs that look alike come from different tables or passages of the source.

Turning to `COc1ccnc(C(=O)N[C@H]2CC[C@H]3C4CCC(CC4)[C@H]3C2=O)c1O` [Compound 292], the inhibition – broadly, the drop in the measured response relative to a control, in per cent – at 25 ppm in assay [1] was less than 80%; in assay [2] (25 ppm in growth medium), less than 80%; in assay [3], less than 80%; in [6], less than 80%; in assay [8], less than 80%; in assay [9] (25 ppm in growth medium) it was more than 80%. For the same molecule, the “LEPTNO in vivo 1 Day Protectant” value in assay [4] (setting [12]) is “+ +”. For the same molecule, the figures for the pest or weed control at 100 ppm in assay [5] (setting [12]), in [7] and in assay [10] (setting [12]) were 25 to 74%, less than 25% and less than 25%, respectively.
In the case of `COc1ccnc(C(=O)N[C@H]2CC3CC2[C@H](COCc2cccc(C(F)(F)F)c2)C3)c1O` (stereo partly drawn) [Compound 294], the inhibition at 25 ppm in [1] was more than 80%; in assay [2] (25 ppm in growth medium), more than 80%; in assay [3], less than 80%; in [6], more than 80%; in [8], less than 80%; in assay [9] (25 ppm in growth medium), more than 80%. For the same molecule, in assay [4] (setting [12]), the “LEPTNO in vivo 1 Day Protectant” value was “+ +”. The pest or weed control at 100 ppm in assay [5] (setting [12]), in assay [7] and in assay [10] (setting [12]) was less than 25% in each case.
On to `COc1ccnc(C(=O)N[C@H]2CC3CC2C[C@@H]3COCc2cccc(C(F)(F)F)c2)c1O` (stereo partly drawn) [Compound 296], for which the inhibition at 25 ppm is more than 80% in assay [1]; less than 80% in [2] (25 ppm in growth medium); less than 80% in [3]; more than 80% in assay [6]; less than 80% in assay [8]; more than 80% in assay [9] (25 ppm in growth medium). Besides, the pest or weed control at 100 ppm in [4] (setting [12]) is 25 to 74%; in assay [5] (setting [12]), less than 25%; in assay [7], less than 25%; in assay [10] (setting [12]), less than 25%.
`COc1ccnc(C(=O)N[C@@H]2CC3CC2[C@@H](c2ccccc2)[C@@H]3C(=O)OC(C)C)c1O` (stereo partly drawn) [Compound 300]: the inhibition at 25 ppm in [1] is more than 80%; in assay [2] (25 ppm in growth medium) it was less than 80%; in assay [3], less than 80%; in assay [6] it was less than 80%; in assay [8], less than 80%; in [9] (25 ppm in growth medium), more than 80%. Also, the pest or weed control at 100 ppm in [4] (setting [12]) is 25 to 74%; in [5] (setting [12]) it was less than 25%; in assay [7] it was less than 25%; in [10] (setting [12]) it was less than 25%.
On to `COc1ccnc(C(=O)N[C@@H]2CC3CC2[C@@H](C(=O)OCCc2ccccc2)[C@H]3C(=O)OCC(C)C)c1O` (stereo partly drawn) [Compound 301], for which the inhibition at 25 ppm in assay [1] is more than 80%; in [2] (25 ppm in growth medium), less than 80%; in [3], less than 80%; in assay [6], more than 80%; in assay [8] it was less than 80%; in assay [9] (25 ppm in growth medium), more than 80%. For the same molecule, the pest or weed control at 100 ppm in assay [4] (setting [12]) is 25 to 74%; in assay [5] (setting [12]), 25 to 74%; in assay [7], less than 25%; in assay [10] (setting [12]) it was less than 25%.
For the molecule `COc1ccnc(C(=O)NC2CCN(C(=O)c3ccccc3)CC2)c1O` [Compound 308], the pest or weed control at 100 ppm in assay [11] (setting [12]) was 25 to 74%; in assay [4] (setting [12]) it was less than 25%; in assay [5] (setting [12]) it was less than 25%; in assay [7] it was less than 25%; in [10] (setting [12]), 25 to 74%. Further, the inhibition at 25 ppm in [3] was less than 80%.
As for `COc1ccnc(C(=O)N[C@H]2COC(=O)[C@H](Cc3ccccc3)C[C@H](C)OC2=O)c1O` [Compound 382], the inhibition at 25 ppm is less than 80% in [1]; more than 80% in [2] (25 ppm in growth medium); less than 80% in [3]; less than 80% in [6]; less than 80% in assay [8]; less than 80% in assay [9] (25 ppm in growth medium). Further, the pest or weed control at 100 ppm was 25 to 74% in assay [11] (setting [13]), 25 to 74% in [5] (setting [13]) and less than 25% in assay [10] (setting [13]). Further, the “LEPTNO in vivo 1 Day Protectant” value in [4] (setting [13]) was “+ +”.
In the case of `CCCC[C@H]1C(=O)O[C@H](C)C(NC(=O)c2cccc(NC(=O)c3nccc(OC)c3O)c2O)C(=O)O[C@@H](C)[C@@H]1OC(=O)CC(C)C` (stereo partly drawn) [Compound 473], the pest or weed control at 100 ppm in [11] was 25 to 74%; in assay [5] (24 h), 25 to 74%; in [7], less than 25%; in assay [10] (24 h) it was less than 25%. The “LEPTNO in vivo 1 Day Protectant” value in assay [4] (in vivo) is listed as “+ +”.
On to `CC(C)C(=O)O[C@H]1[C@H](C)OC(=O)[C@@H](NC(=O)c2ccncc2O)COC(=O)[C@@H]1Cc1ccccc1` [Compound 513], for which the pest or weed control at 100 ppm is less than 25% in assay [11] (setting [14]), 25 to 74% in [5] (setting [14]), less than 25% in assay [7] and less than 25% in assay [10] (setting [14]). In assay [4] (setting [14]), the “LEPTNO in vivo 1 Day Protectant” value was “+ +”.
On to `Cc1ccnc(C(=O)NC2CC(C)(C)CC(C)(C)C2)c1OC(=O)C(C)C` [Compound 571], for which the pest or weed control at 100 ppm is less than 25% in assay [11] (setting [14]); 25 to 74% in assay [4] (setting [14]); less than 25% in assay [5] (setting [14]); 25 to 74% in assay [7]; less than 25% in assay [10] (setting [14]).
As to `COc1ccnc(C(=O)N[C@H]2CO[C@@H](C(C)Cc3ccc(C(C)(C)C)cc3)OC2)c1OC(C)=O` (stereo partly drawn) [Compound 593], the inhibition at 25 ppm in [1], in assay [2] (25 ppm in the growth medium), in assay [3], in assay [6], in assay [8] and in [9] (25 ppm in the growth medium) was less than 80% throughout. Moreover, the pest or weed control at 100 ppm in assay [11] (setting [14]) was 25 to 74%; in assay [7], less than 25%; in [10] (setting [14]), less than 25%. Besides, the “PUCCRT in vivo 1 Day Protectant” value in [5] (setting [14]) is “+ +”.
With `COc1ccnc(C(=O)N[C@H]2COC(=O)[C@H](Cc3ccccc3)[C@@H](OC(=O)C(C)C)[C@H](C)OC2=O)c1OC(=O)OCc1ccccc1` [Compound 695], the inhibition at 25 ppm in assay [1] is less than 80%; in assay [2] (25 ppm in growth medium) it was less than 80%; in assay [3], less than 80%; in assay [6], more than 80%; in assay [8], less than 80%; in assay [9] (25 ppm in growth medium) it was less than 80%. For the same molecule, the “LEPTNO in vivo 1 Day Protectant” value in assay [4] (setting [15]) was “+ +”. In addition, the “PUCCRT in vivo 1 Day Protectant” value in [5] (setting [15]) is given as “+ +”. The pest or weed control at 100 ppm in assay [7] and in assay [10] (setting [15]) was less than 25% each time.
`COCCC(=O)Oc1c(OC)ccnc1C(=O)N[C@H]1COC(=O)[C@H](Cc2ccccc2)[C@@H](OC(=O)CCOC)[C@H](C)OC1=O` [Compound 705]: the pest or weed control at 100 ppm in [11] (setting [15]) was 25 to 74%; in [7], less than 25%; in assay [10] (setting [15]), less than 25%. Besides, the “LEPTNO in vivo 1 Day Protectant” value in assay [4] (setting [15]) is “+ +”. In addition, the “PUCCRT in vivo 1 Day Protectant” value in [5] (setting [15]) is listed as “+ +”.
For the molecule `COc1ccnc(C(=O)N[C@H]2COC(=O)[C@H](Cc3ccccc3)[C@@H](OC(=O)C(C)C)[C@H](C)OC2=O)c1O[Si](C)(C)C(C)(C)C` [Compound 720], in assay [11] (setting [15]), the “SEPTTR in vivo 1 Day Protectant” value is “+ +”. Besides, in assay [4] (setting [15]), the “LEPTNO in vivo 1 Day Protectant” value was “+ +”. Further, the “PUCCRT in vivo 1 Day Protectant” value in [5] (setting [15]) is on record as “+ +”. Besides, the pest or weed control at 100 ppm in [7] and in assay [10] (setting [15]) was less than 25% in each case.
